# In US20220280468A1, “METHOD FOR PREVENTING OCCURRENCE OF CARDIOVASCULAR EVENT IN MULTIPLE RISK PATIENT” (MOCHIDA PHARMACEUTICAL CO., LTD., priority 2006, published 2022):
# What was measured:
# [1] = tested on: cardiac events and serum lipids in hyperlipidemia patients; details: cited from earlier work
# [2] = tested on: cardiovascular events in hypercholesterolemia patients; assay: JELIS partial analysis: occurrence of cardiovascular events in primary prevention hypercholesterolemia patients by risk factors; type: in vivo, human; details: for Incidence in the EPA-E group (cases of occurrence/all cases) / Incidence in the EPA-E group (%): with HMG-CoA RI base drug; for Rate of suppression of cardiovascular event occurrence after correcting the dispersion between groups: end of trial
# Excerpt: This trial corresponds to a partial analysis of the results obtained in JELIS (Japan EPA Lipid Intervention Study) which is a large scale clinical trial of high purity EPA preparation which was presented in The […] 2005 Annual Meeting (for general information on JELIS, see Medical Tribune, issue of Nov. 17, 2005, Feature article 3, pp. 75-76).
# More specifically, for the EPA-E group (7503 cases) and the control group (7478 cases) evaluated for the primary prevention effect in the 18,645 subject patients of the JELIS trial (EPA-E group (9,326 cases) and control group (9,319 cases)), occurrence of the cardiovascular events was observed and analysed for 5 years from the start of the administration in relation to the number of risk factors at the registration as defined by the following (1) to (4): • (1) obesity: body mass index (BMI) of at least 25; • (2) hypertension or prehypertension: systolic blood pressure (SBP) of at least 140 mmHg or diastolic blood pressure (DBP) of at least 90 mmHg; • (3) diabetes, prediabetes, or abnormal glucose tolerance: fasting blood glucose (FBS) of at least 126 mg/dL or hemoglobin Alc (HbAlc) of at least 6.5%; • (4) hypertriglyceridemia or low HDL cholesterolemia: a triglyceride (TG) of at least 150 mg/dL or a HDL-C of less than 40 mg/dL.
# The EPA-E group was orally administered with Epadel (Mochida Pharmaceutical Co., Ltd.) typically at an adult dose of 600 mg per administration and 3 times a day after the meal. However, in the case of abnormal serum TG, the dose could be increased to 900 mg per administration and 3 times a day. In both groups, pravastatin sodium (Mevalotin™ tablets and fine granules, Daiichi Sankyo Co., Ltd.), simvastatin (Lipovas™ tablets, Banyu Pharmaceutical Co., Ltd.), or atorvastatin calcium hydrate (Lipitor™ tablets, Astellas Pharma Inc. and Pfizer Inc.) was used for the base drug, and these drugs were orally administered according to the prescribed dosage regimen. More specifically, pravastatin sodium was orally administered at a daily dose of 10 to 20 mg in a single dose or two divided doses; simvastatin was orally administered at a daily dose of 5 to 20 mg in a single dose; atorvastatin calcium hydrate was orally administered at a daily dose of 10 to 40 mg in a single dose.
# The number of occurrence of cardiovascular events in the observation period of 5 years, incidence (%), and rate of suppression of the incidence of the cardiovascular events in the EPA-E group with respect to the control group are shown in Table 1 for each number of risk factors. The rate of suppression of the incidence of the cardiovascular events was calculated by the formula: [{(incidence in the control group)−(incidence in the EPA-E group)}/incidence in the control group]×100.
# From the results of the trial as described above, the number of occurrence of cardiovascular events in the observation period of 5 years, incidence (%), and rate of suppression of the incidence of the cardiovascular events in the EPA-E group with respect to the control group were calculated for the male patients having at least two risk factors. (The calculation was conducted by the same procedure as described above.)
# (The calculation was conducted by the same procedure as described above.)
# [3] = EPA-E group (with HMG-CoA RI), Non-Patent Document 3
# [4] = 1-2 risk factors, 5 years observation
# [5] = 1-3 risk factors, 5 years observation
# [6] = 1-4 risk factors, 5 years observation
# [7] = 1 risk factor, 5 years observation
# [8] = 2-3 risk factors, 5 years observation
# [9] = 2-4 risk factors, 5 years observation
# [10] = 2 risk factors, 5 years observation
# [11] = 3-4 risk factors, 5 years observation
# [12] = 3 risk factors, 5 years observation
# [13] = TG of at least 150 mg/dL and HDL-C of less than 40 mg/dL
# [14] = male patients with two or more risk factors
# [15] = male patients, 2-4 risk factors, 5 years observation
# [16] = patients with TG of at least 150 mg/dL and HDL-C of less than 40 mg/dL, 5 years
compound,measurement,setting,value
"CC/C=C\C/C=C\C/C=C\C/C=C\C/C=C\CCCC(=O)OCC [EPA-E, ethyl icosapentate]",Change of HDL-cholesterol value,"[1]; EPA-E group (with HMG-CoA RI), Non-Patent Document 2",slight
same,Change in HDL-C,[1]; [3],little change
same,Decrease of LDL-cholesterol,[1]; [3],25%
same,Decrease of total cholesterol,[1]; [3],19%
same,Reduction of LDL-cholesterol value,"[1]; EPA-E group (with HMG-CoA RI), after 5 years, Non-Patent Document 2",26%
same,Decrease of triglyceride,"[1]; EPA-E group (with HMG-CoA RI), significant, Non-Patent Document 3",9%
same,Incidence of events vs control group (in words),[1]; analysis limited to the primary prevention patients,this difference was not statistically significant
same,Suppression of cardiac events (in words),"[1]; total of primary and secondary prevention patients, and secondary prevention patients",statistically significant suppression
same,Rate of Suppression of cardiovascular event incidence vs control group,"[2]; 0 risk factors, 5 years",22%
same,Incidence in the EPA-E group (cases of occurrence/all cases),"[2]; 0 risk factors, 5 years observation",11/1326
same,Rate of Suppression of cardiovascular event incidence vs control group,"[2]; 1-2 risk factors, 5 years",21%
same,Incidence in the EPA-E group (%),[2]; [4],(1.3) %
same,Incidence in the EPA-E group (cases of occurrence/all cases),[2]; [4],59/4706
same,Rate of Suppression of cardiovascular event incidence vs control group,"[2]; 1-3 risk factors, 5 years",18%
same,Incidence in the EPA-E group (%),[2]; [5],(1.5) %
same,Incidence in the EPA-E group (cases of occurrence/all cases),[2]; [5],87/5935
same,Rate of Suppression of cardiovascular event incidence vs control group,"[2]; 1-4 risk factors, 5 years",18%
same,Incidence in the EPA-E group (%),[2]; [6],(1.5) %
same,Incidence in the EPA-E group (cases of occurrence/all cases),[2]; [6],93/6177
same,Rate of Suppression of cardiovascular event incidence vs control group,"[2]; 1 risk factor, 5 years",15%
same,Incidence in the EPA-E group (%),[2]; [7],(1.0) %
same,Incidence in the EPA-E group (cases of occurrence/all cases),[2]; [7],25/2468
same,Rate of Suppression of cardiovascular event incidence vs control group,"[2]; 2-3 risk factors, 5 years",16%
same,Incidence in the EPA-E group (%),[2]; [8],(1.8) %
same,Incidence in the EPA-E group (cases of occurrence/all cases),[2]; [8],62/3467
same,Rate of Suppression of cardiovascular event incidence vs control group,"[2]; 2-4 risk factors, 5 years",18%
same,Incidence in the EPA-E group (%),[2]; [9],(1.8) %
same,Incidence in the EPA-E group (cases of occurrence/all cases),[2]; [9],68/3709
same,Rate of Suppression of cardiovascular event incidence vs control group,"[2]; 2 risk factors, 5 years",23%
same,Incidence in the EPA-E group (%),[2]; [10],(1.5) %
same,Incidence in the EPA-E group (cases of occurrence/all cases),[2]; [10],34/2238
same,Rate of Suppression of cardiovascular event incidence vs control group,"[2]; 3-4 risk factors, 5 years",14%
same,Incidence in the EPA-E group (%),[2]; [11],(2.3) %
same,Incidence in the EPA-E group (cases of occurrence/all cases),[2]; [11],34/1471
same,Rate of Suppression of cardiovascular event incidence vs control group,"[2]; 3 risk factors, 5 years",5%
same,Incidence in the EPA-E group (%),[2]; [12],(2.3) %
same,Incidence in the EPA-E group (cases of occurrence/all cases),[2]; [12],28/1229
same,Rate of Suppression of cardiovascular event incidence vs control group,"[2]; 4 risk factors, 5 years",40%
same,Incidence in the EPA-E group (cases of occurrence/all cases),"[2]; 4 risk factors, 5 years observation",6/242
same,Effect on occurrence of cardiovascular events (in words),[2]; [13],significantly suppressed occurrence of cardiovascular events
same,Occurrence of fatal events in the EPA-E group,[2]; [13],occurrence of fatal events was not found
same,Time from start of administration after which decrease in cardiovascular event incidence was significant,[2]; [13],≥ 2 years
same,Rate of suppression of cardiovascular event occurrence after correcting the dispersion between groups,"[2]; TG of at least 150 mg/dL and HDL-C of less than 40 mg/dL, FIG. 2",53%
same,Effect on occurrence of cardiovascular events (in words),[2]; [14],significantly suppressed the occurrence of cardiovascular events
same,Time from start of administration after which decrease in cardiovascular event incidence was significant,[2]; [14],≥ 2 years
same,Rate of suppression of cardiovascular event occurrence after correcting the dispersion between groups,"[2]; male patients with two or more risk factors, FIG. 1",55%
same,Incidence in the EPA-E group (%),[2]; [15],(1.8) %
same,Incidence in the EPA-E group (cases of occurrence/all cases),[2]; [15],19/1065
same,Rate of Suppression of cardiovascular event incidence vs control group,"[2]; male patients, 2-4 risk factors, 5 years, uncorrected",56%
same,Suppression of occurrence of cardiovascular events vs control group,"[2]; patients with HDL-C of less than 40 mg/dL, uncorrected",35%
same,Rate of Suppression of cardiovascular event incidence vs control group,"[2]; patients with TG of at least 150 mg/dL and HDL-C of less than 40 mg/dL, 5 years, uncorrected",48%
same,Incidence in the EPA-E group (%),[2]; [16],(2.3) %
same,Incidence in the EPA-E group (cases of occurrence/all cases),[2]; [16],11/482
same,Suppression of occurrence of cardiovascular events vs control group,"[2]; patients with triglyceride of at least 150 mg/dL, uncorrected",15%
